The values below come from US20060141486A1, “Porous substrates and arrays comprising the same” (priority 2004, published 2006).

What all share (experiment): GPCR array binding assay on flow-through microplate with GAPS porous substrate
The target of assay [1] is T1, human muscarinic receptor subtype 1 (M1) (Homo sapiens, UniProt P11229).
T1 sequence (P11229 1-460): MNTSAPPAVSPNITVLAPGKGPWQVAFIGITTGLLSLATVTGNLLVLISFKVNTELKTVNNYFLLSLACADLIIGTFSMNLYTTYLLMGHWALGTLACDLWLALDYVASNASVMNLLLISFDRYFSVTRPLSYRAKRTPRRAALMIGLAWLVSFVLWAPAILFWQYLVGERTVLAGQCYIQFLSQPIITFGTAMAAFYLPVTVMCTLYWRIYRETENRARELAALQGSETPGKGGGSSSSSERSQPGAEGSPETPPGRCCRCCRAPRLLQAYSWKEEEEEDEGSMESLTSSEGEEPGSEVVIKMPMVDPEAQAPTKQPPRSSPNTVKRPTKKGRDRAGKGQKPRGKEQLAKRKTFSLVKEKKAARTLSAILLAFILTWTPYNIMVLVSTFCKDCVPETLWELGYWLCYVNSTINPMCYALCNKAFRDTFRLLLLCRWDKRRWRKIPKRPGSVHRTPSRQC
How it is done: (§1) 96 patches of silica-based porous substrate (GAPS™, Corning Inc.) were screen printed onto a 1737 glass support plate, and sintered at 695° C. The glass support was pre-fabricated by sand blasting to generate 192 microchannels. Under each porous patch, there are two microchannels which provide access to the porous patch from the opposite side of the glass support. Human muscarinic receptor subtype 1 (M1), delta opioid receptor subtype 2 (delta2), and muscarinic receptor subtype 2 (M2) were printed onto the GAPS™-porous substrate with a configuration such that each receptor was aligned in one column with four replicates (i.e., columns 1, 2 and 3 for M1, delta2 and M2 receptors, respectively; see FIG. 4A). […] After one hour incubation, a vacuum force was applied to remove the assay solution and the sequential washing solution before the array was finally being dried.

Assay [2] deals with T2, human muscarinic receptor subtype 2 (M2) (Homo sapiens, UniProt P08172).
T2 sequence (P08172 1-466): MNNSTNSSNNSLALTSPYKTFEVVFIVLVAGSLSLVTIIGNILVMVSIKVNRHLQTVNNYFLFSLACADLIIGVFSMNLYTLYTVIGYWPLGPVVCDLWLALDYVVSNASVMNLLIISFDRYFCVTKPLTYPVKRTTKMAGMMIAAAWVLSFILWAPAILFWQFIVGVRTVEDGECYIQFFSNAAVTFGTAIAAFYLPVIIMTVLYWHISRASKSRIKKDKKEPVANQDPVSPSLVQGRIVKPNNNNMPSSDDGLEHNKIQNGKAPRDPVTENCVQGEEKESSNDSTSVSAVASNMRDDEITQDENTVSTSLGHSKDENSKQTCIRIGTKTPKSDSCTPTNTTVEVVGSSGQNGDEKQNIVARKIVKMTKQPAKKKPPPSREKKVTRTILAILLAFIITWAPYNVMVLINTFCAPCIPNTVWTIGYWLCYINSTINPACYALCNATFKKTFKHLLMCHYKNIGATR
How it is done:
as §1

The target of assay [3] is human delta opioid receptor subtype 2 (delta2) (Homo sapiens, UniProt P41143). The following applies: 4 nM Cy5-naltrexone in cocktail of labeled ligands, one hour incubation, FIG. 4A. As to the method: as §1
Sequence of human delta opioid receptor subtype 2 (delta2) (P41143 whole entry): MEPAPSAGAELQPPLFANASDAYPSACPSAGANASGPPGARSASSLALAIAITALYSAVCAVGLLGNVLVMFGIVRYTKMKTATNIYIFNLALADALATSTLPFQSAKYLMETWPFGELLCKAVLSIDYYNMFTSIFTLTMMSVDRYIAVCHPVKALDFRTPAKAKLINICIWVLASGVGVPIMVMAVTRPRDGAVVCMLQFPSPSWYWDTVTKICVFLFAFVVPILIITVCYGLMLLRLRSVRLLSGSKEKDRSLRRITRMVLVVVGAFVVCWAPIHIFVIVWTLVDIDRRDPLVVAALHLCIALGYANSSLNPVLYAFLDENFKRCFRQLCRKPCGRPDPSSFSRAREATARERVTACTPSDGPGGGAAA
[4] abbreviates: unlabeled telenzepine 2 μM (with naltrexone 4 μM), FIG. 4B.
[5] abbreviates: 2 nM Cy3B-telenzepine in cocktail of labeled ligands, one hour incubation, FIG. 4A.

As for `Cc1scc2c1N(C(=O)CN1CCN(C)CC1)c1ccccc1NC2=O` [telenzepine], the “inhibition of Cy3B-telenzepine binding to M1 receptor by unlabeled compound” value in assay [1] (setting [4]) is recorded as “inhibited”. Also, the “inhibition of Cy3B-telenzepine binding to M2 receptor by unlabeled compound” value in assay [2] (setting [4]) was “inhibited”. Take Cy5-naltrexone: the “binding of labeled ligand to delta2 receptor microspots (fluorescence)” value in assay [3] is given as “strong binding”. Cy3B-telenzepine: the “binding of labeled ligand to M1 receptor microspots (fluorescence)” value in assay [1] (setting [5]) is given as “strong binding”. In addition, in assay [2] (setting [5]), the “binding of labeled ligand to M2 receptor microspots (fluorescence)” value was “Weak binding signals”.
